The record followed here is US9815794B2, “Inhibition of bacterial biofilms and microbial growth with imidazole derivatives” (North Carolina State University, priority 2011, dated 2017).

The test system of one assay is VRE. The experiment in a line: Broth microdilution MIC. Format: cell-based, vancomycin resistant Enterococcus faecium. The conditions noted are these: Enterococcus. As to the method: (§1) Once it was determined that this specific 4,5-disubstitution pattern imparted microbicidal activity onto the 2-AI framework, this activity was quantified by measuring the MIC of each derivative against a variety of representative pathogenic bacterial strains using the microdilution protocol (CSLI, Performance Standards for Antimicrobial Suceptibility Testing; Nineteenth Informational Supplement, Clinical and Laboratory Standards Institute, Wayne, Pa., 2009). E. coli, MDRAB, P. aeruginosa, MRSA, MSSA, S. epidermidis and VRE were used for initial evaluation. From this screen, compound 15 was determined to be the lead compound and had MIC values (μg/mL) of 2, 2, 1, 0.5, 0.25, and 1 against E. coli, MDRAB, MRSA, VRE, S. Epidermidis and MSSA.
(§2) S. aureus (ATCC #29213), S. epidermidis (ATCC #29886), MRSA (ATCC # BAA-44), MDRAB (ATCC # BAA-1605), vancomycin resistant Enterococcus faecium (VRE) (ATCC #51559) and E. coli (ATCC #35695) were obtained from the ATCC. Mechanically difibrinated sheep blood (DSB100) was obtained from Hemostat Labs. Mueller-Hinton medium was purchased from Fluka (#70192).
(§3) Broth Microdilution Method for MIC Determination.
(In general: Dilution methods test growth across graded concentrations, often in twofold steps.)

Assay [1] has as its system E. coli. The experiment in a line: Growth curve analysis (A600). In kind it is cell-based. The conditions noted are these: at IC50 concentration (13 μM). The text has this:
(§4) This is typically indicative of biofilm inhibition via a traditional microbicidal mechanism instead of a mechanism that modulates biofilm formation through non-microbicidal mechanisms. […] At this concentration, a 97% reduction in bacterial growth was observed.

In assay [2] the test system is Rhodospirillum salexigens. Kind of assay: Marine bacteria microdilution MIC. The conditions noted are these: R. salexigens.
Assay [3] relates to E. coli. Kind of assay: Biofilm formation inhibition, crystal violet reporter assay. In kind it is cell-based. The conditions noted are these: Escherichia coli. On the procedure: (§5) The ability of each member of the pilot library to inhibit either E. coli or MDRAB biofilm formation at 100 μM was assessed using a crystal violet reporter assay (O'Toole et al., Mol. Microbiol., 1998, 30: 295-304).
as §4
(A reporter such as luciferase makes a cellular process visible.)

The next assay has as its system MRSA. Kind of assay: Dispersion of pre-formed biofilms. In kind it is cell-based, methicillin-resistant S. aureus. The conditions noted are these: Staphylococcus aureus, read-out: EC50, 50% dispersion of a pre-formed biofilm. As to the method: (§6) The ability of 15 and 19 to disperse pre-formed biofilms was also determined for all of the aforementioned bacterial strains (both marine and terrestrial). To quantify this effect, the EC50 value of each compound against each bacterial strain was determined, where EC50 is defined as the concentration of compound that elicits 50% dispersion of a pre-formed biofilm. Both compounds are able to disperse pre-formed biofilms at low micromolar concentrations. These concentrations are also microbicidal to planktonic bacteria. […]
(§7) Preformed Biofilms: Dispersion assays were performed by taking an overnight culture of bacterial strain and subculturing it at an OD600 of 0.01 into the necessary medium (brain heart infusion for E. faecium, tryptic soy broth with a 0.5% glucose supplement (TSBG) for MRSA, S. aureus and S. epidermidis, Luria-Bertani (LB) medium for MDRAB and E. coli, and tryptic soy broth with a 0.5% glucose supplement and a 3.0% NaCl supplement (TGN) for R. salexigens, V. cholerae, V. vulnificus and L. anguillarum.) The resulting bacterial suspension was aliquoted (100 μL) into the wells of a 96-well PVC microtiter plate. […] Biofilm dispersion was quantitated by measuring the OD540 of each well in which a negative control lane wherein no biofilm was formed served as a background and was subtracted out.

Assay [4] can be described thus: Dye dispersion assay from synthetic vesicles. The settings on record: 5 minutes. On the procedure:
Finally, given that active compounds are characterized by a polar head group and a lipophilic tail, it was probed whether compounds 15 and 19 were eliciting their activity via a pore forming mechanism. Compound 1 was used as a control. This was probed via a dye dispersion assay from synthetic vesicles (Liu et al., J. Am. Chem. Soc., 2001, 123, 7553-7559). Two types of vesicles were prepared, one containing 1-palmitoyl-2-oleoyl-sn-glycero-3-phosphocholine (POPC) and the other containing 1-palmitoyl-2-oleoyl-sn-glycero-3-phosphoglycerol (POPG). POPC mimics typical cell membranes encountered for mammalian red blood cells, while POPG mimics the negatively charged lipids encountered in bacterial membranes. In 5 minutes, at 25 μM, compounds 15 and 19 elicited 20% dye leakage from the POPG vesicles while they elicited 10% and 15% dye leakage from the POPC vesicles respectively. However, in 5 minutes at 500 μM, compounds 15 and 19 elicited 78% and 85% dye leakage from the POPG vesicles respectively. In 5 minutes at 25 μM, control compound 1 elicited 9% and 18% leak dye leakage from the POPC and POPG vesicles respectively, while in 5 minutes at 500 μM 1 elicited 15% and 50% leakage from the POPC and POPG vesicles. Given this differential response, and without wishing to be bound by theory, it is likely that compounds 15 and 19 are inducing microbicidal activity through a simple pore-forming mechanism.

In a further assay the test system is MSSA. The experiment in a line: Broth microdilution MIC. In kind it is cell-based, S. aureus. The conditions noted are these: Staphylococcus aureus. On the procedure:
as §1, §2, §3

In assay [5] the test system is MDRAB. The experiment in a line: Biofilm formation inhibition, crystal violet reporter assay. Format: cell-based. As to the method: as §5
Assay [6] deals with MDRAB. Kind of assay: Broth microdilution MIC. In kind it is cell-based. On the procedure:
as §1, §2, §3

For the next assay, the system named is S. epidermidis. Kind of assay: Broth microdilution MIC. Format: cell-based. The settings on record: Staphylococcus epidermidis, read-out: MIC. On the procedure:
as §1, §2, §3

In assay [7] the test system is E. coli. The experiment in a line: Broth microdilution MIC. In kind it is cell-based. The conditions noted are these: Escherichia coli. On the procedure:
as §1, §2, §3

A further assay relates to R. salexigens. The experiment in a line: Dispersion of pre-formed biofilms. Format: cell-based, Rhodospirillum salexigens. The settings on record: Rhodothalassium salexigens, read-out: EC50, 50% dispersion of a pre-formed biofilm. As to the method:
as §6, §7

The subject of another assay is Listonella anguillarum. Kind of assay: Marine bacteria microdilution MIC. The conditions noted are these: L. anguillarum.

Converted amounts (≈) assume the structure as drawn.

One may read the MIC as the lowest concentration that inhibits growth of the organism. As a reminder, the inhibition is the drop in the measured response relative to a control, in per cent. Read a low inhibition as a weak effect. For orientation: IC50 means the concentration that inhibits the measured activity by half. Low values mean inhibition by little substance, high ones a need for much substance. As a reminder, the EC50 is the concentration needed to bring the measured effect to its halfway point. Consider `CCCCCc1[nH]c(N)nc1CCCCCc1ccccc1` [Compound 15, 5-pentyl-4-(5-phenylpentyl)-1H-imidazol-2-amine], for which the MIC came to 0.5 µg/mL (≈ 1.67 µM) in the assay with VRE; 2.10 µg/mL (≈ 7.01 µM) in assay [2]; 2.1 µg/mL (≈ 7.01 µM) in assay [2] (Rhodothalassium salexigens); 1 µg/mL (≈ 3.34 µM) against MSSA; 2 µg/mL (≈ 6.68 µM) in the assay with MDRAB [6]; 0.25 µg/mL (≈ 0.835 µM) in the assay with S. epidermidis. Further, the results for the MIC against E. coli [7], against Listonella anguillarum and in the assay on Listonella anguillarum (Vibrio anguillarum) were 2 µg/mL (≈ 6.68 µM), 2.10 µg/mL (≈ 7.01 µM) and 2.1 µg/mL (≈ 7.01 µM), respectively. In addition, in the assay on E. coli [1], the “reduction in bacterial growth” value is reported as 97%. The inhibition at 100 µM in the assay on E. coli [3] (100 μM) was 83 ± 0.8%; in the assay with MDRAB [5], 80.3 ± 8.1%. It took 13 µM to reach half-maximal inhibition in the assay with E. coli [3] (dose-response) (IC50). For the same compound, the values for the half-maximal effective concentration (EC50) with MRSA and in the assay with R. salexigens were 33.9 ± 3.9 µM and 6.6 ± 1.1 µM, respectively. In addition, the dye leakage in [4] (POPC vesicles, 25 μM) is given as 10%; in [4] (POPG vesicles, 25 μM) it was 20%; in [4] (POPG vesicles, 500 μM) it was 78%.
On to `CCCCCCc1[nH]c(N)nc1CCCCCc1ccccc1` [Compound 19, 5-hexyl-4-(5-phenylpentyl)-1H-imidazol-2-amine], for which the minimum inhibitory concentration (MIC) against VRE was 0.5 µg/mL (≈ 1.59 µM); in assay [2], 1.09 µg/mL (≈ 3.48 µM); in assay [2] (Rhodothalassium salexigens) it was 1.1 µg/mL (≈ 3.51 µM); with MSSA it was 1 µg/mL (≈ 3.19 µM); against MDRAB [6] it was 4 µg/mL (≈ 12.8 µM); in the assay on S. epidermidis, 0.5 µg/mL (≈ 1.59 µM). Moreover, the results for the MIC with E. coli [7] and in the assay with Listonella anguillarum (Vibrio anguillarum) were 2 µg/mL (≈ 6.38 µM) and 2.2 µg/mL (≈ 7.02 µM), respectively. Also, the values for the EC50 with MRSA and with R. salexigens were 74.9 ± 9.8 µM and 17.6 ± 3.2 µM, respectively. For the same compound, the dye leakage in [4] (POPC vesicles, 25 μM) is reported as 15%; in assay [4] (POPG vesicles, 25 μM), 20%; in [4] (POPG vesicles, 500 μM), 85%.
